ChEMBL document CHEMBL3217548, “Biological activity and DNA binding studies of 2-substituted benzimidazo[1,2-a]quinolines bearing different amino side chains” (Medchemcomm, 2013)
One block for each compound: values may come before it. Active and inactive are the calls of the source. No cut-off for these calls is given here.

What was measured:
DNA = assay: Induction of DNA damage in plasmid DNA in E. coli S30 cell-free system assessed as inhibition of EGFP translation at 50 uM after 1 hr by fluorescence assay
Homo sapiens = species: Homo sapiens; assay: Inhibition of human DNA topoisomerase 2 assessed as inhibition of DNA cleavage
Calf thymus DNA [1] = assay: Binding affinity to calf thymus DNA assessed as change in melting temperature at 0.5 drug/DNA ratio by spectrophotometry; assay type: nucleic-acid assay; settings: Bos taurus
HCT-116 [2] = assay: Cytotoxicity against human HCT116 cells after 72 hrs by MTT assay; assay type: functional, cell-based; settings: HCT-116, 72 h
Escherichia coli [3] = assay: Binding affinity to Escherichia coli pUC19 plasmid assessed as nicked DNA at 5 to 50 uM by ethidium bromide staining-based agarose gel electrophoresis
Escherichia coli [4] = assay: Induction of topoisomerase1-mediated Escherichia coli pUC19 plasmid relaxation at 20 to 50 uM incubated for 45 mins prior to topoisomerase1 addition by agarose gel electrophoresis
MCF7 = assay: Cytotoxicity against human MCF7 cells after 72 hrs by MTT assay; assay type: functional, cell-based; settings: MCF7, 72 h
[5] = Cytotoxicity against human H460 cells after 72 hrs by MTT assay; assay type: functional, cell-based; settings: NCI-H460, 72 h
[6] = target: T1, DNA topoisomerase 1 (Homo sapiens) (UniProt P11387); assay: Inhibition of human DNA topoisomerase 1 assessed as inhibition of DNA cleavage
T1 sequence (whole entry): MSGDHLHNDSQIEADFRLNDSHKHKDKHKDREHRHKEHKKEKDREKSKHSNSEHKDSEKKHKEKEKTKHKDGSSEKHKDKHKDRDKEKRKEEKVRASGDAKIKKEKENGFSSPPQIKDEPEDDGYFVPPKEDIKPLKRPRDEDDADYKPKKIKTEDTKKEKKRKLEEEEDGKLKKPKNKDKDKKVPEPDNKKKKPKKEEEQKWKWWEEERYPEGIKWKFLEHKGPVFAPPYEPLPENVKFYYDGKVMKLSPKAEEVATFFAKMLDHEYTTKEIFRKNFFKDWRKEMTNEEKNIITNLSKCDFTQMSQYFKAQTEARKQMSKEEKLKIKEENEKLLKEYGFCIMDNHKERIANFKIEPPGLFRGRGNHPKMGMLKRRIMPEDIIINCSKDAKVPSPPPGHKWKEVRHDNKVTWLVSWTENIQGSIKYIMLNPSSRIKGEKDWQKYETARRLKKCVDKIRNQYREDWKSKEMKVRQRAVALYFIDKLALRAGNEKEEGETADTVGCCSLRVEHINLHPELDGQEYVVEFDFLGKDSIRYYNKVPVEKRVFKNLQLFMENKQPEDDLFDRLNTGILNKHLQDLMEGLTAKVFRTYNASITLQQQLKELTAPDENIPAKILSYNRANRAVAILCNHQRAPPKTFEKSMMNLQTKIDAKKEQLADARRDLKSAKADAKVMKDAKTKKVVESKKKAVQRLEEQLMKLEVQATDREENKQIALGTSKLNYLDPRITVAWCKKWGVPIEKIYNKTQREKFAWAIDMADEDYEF

Calf thymus DNA [7] = assay: Binding affinity to calf thymus DNA assessed as DNA intercalation at 1 to 50 uM by circular dichroism analysis; assay type: nucleic-acid assay; settings: Bos taurus
HCT-116 [8] = assay: Cell cycle arrest in human HCT116 cells assessed as accumulation at subG1 phase at 0.1 uM after 24 hrs by propidium iodide staining-based FACS analysis (reference value: 2 +/- 0.1 %); assay type: functional
[9] = Drug uptake in human H460 cell nucleus at 10 uM after 2 hrs by confocal laser scanning microscopy; assay type: ADME, cell-based; settings: h460, 2 h
HCT-116 [10] = assay: Cell cycle arrest in human HCT116 cells assessed as accumulation at subG1 phase at 1 uM after 24 hrs by propidium iodide staining-based FACS analysis (reference value: 2 +/- 0.1 %); assay type: functional
HCT-116 [11] = assay: Cell cycle arrest in human HCT116 cells assessed as accumulation at S phase at 0.1 uM after 24 hrs by propidium iodide staining-based FACS analysis (reference value: 48 +/- 6 %); assay type: functional
Calf thymus DNA [12] = assay: Binding affinity to calf thymus DNA assessed as hypochromic shift at 20 uM by UV/visible spectrophotometry; assay type: nucleic-acid assay; settings: Bos taurus
[13] = Binding affinity to DNA (unknown origin) at 1 to 10 uM after 15 mins by DNA footprinting assay
HCT-116 [14] = assay: Cell cycle arrest in human HCT116 cells assessed as accumulation at S phase at 1 uM after 24 hrs by propidium iodide staining-based FACS analysis (reference value: 48 +/- 6 %); assay type: functional
[15] = Drug uptake in human H460 cell cytoplasm at 10 uM after 2 hrs by fluorescence microscopy; assay type: ADME, cell-based; settings: h460, 2 h
Calf thymus DNA [16] = assay: Binding affinity to calf thymus DNA assessed as bathochromic shift at 20 uM by UV/visible spectrophotometry; assay type: nucleic-acid assay; settings: Bos taurus
HCT-116 [17] = assay: Cell cycle arrest in human HCT116 cells assessed as accumulation at subG1 phase at 5 uM after 24 hrs by propidium iodide staining-based FACS analysis; assay type: functional
H460 = assay: Binding affinity to chromosomal DNA in human H460 cells at 10 uM after 2 hrs by confocal laser scanning microscopy; assay type: cell-based
HCT-116 [18] = assay: Cell cycle arrest in human HCT116 cells assessed as accumulation at G2/M phase at 0.1 uM after 48 hrs by propidium iodide staining-based FACS analysis (reference value: 28 +/- 3 %); assay type: functional
HCT-116 [19] = assay: Cell cycle arrest in human HCT116 cells assessed as accumulation at S phase at 1 uM after 48 hrs by propidium iodide staining-based FACS analysis (reference value: 12+/- 5 %); assay type: functional
HCT-116 [20] = assay: Cell cycle arrest in human HCT116 cells assessed as accumulation at S phase at 0.1 uM after 48 hrs by propidium iodide staining-based FACS analysis (reference value: 12+/- 5 %); assay type: functional
[21] = Drug uptake in human H460 cell nucleus at 10 uM after 2 hrs by fluorescence microscopy; assay type: ADME, cell-based; settings: h460, 2 h
HCT-116 [22] = assay: Cell cycle arrest in human HCT116 cells assessed as accumulation at G2/M phase at 1 uM after 48 hrs by propidium iodide staining-based FACS analysis (reference value: 28 +/- 3 %); assay type: functional
HCT-116 [23] = assay: Cell cycle arrest in human HCT116 cells assessed as accumulation at G1 phase at 0.1 uM after 24 hrs by propidium iodide staining-based FACS analysis (reference value: 23 +/- 2 %); assay type: functional
HCT-116 [24] = assay: Cell cycle arrest in human HCT116 cells assessed as accumulation at subG1 phase after 24 hrs by propidium iodide staining-based FACS analysis; assay type: functional
Escherichia coli [25] = assay: Binding affinity to Escherichia coli pUC19 plasmid assessed as nicked DNA at 0.1 to 5 uM by ethidium bromide staining-based agarose gel electrophoresis
HCT-116 [26] = assay: Cell cycle arrest in human HCT116 cells assessed as accumulation at subG1 phase at 1 uM after 48 hrs by propidium iodide staining-based FACS analysis (reference value: 5 +/- 2 %); assay type: functional
HCT-116 [27] = assay: Cell cycle arrest in human HCT116 cells assessed as accumulation at G2/M phase at 0.1 uM after 24 hrs by propidium iodide staining-based FACS analysis (reference value: 29 +/- 8 %); assay type: functional
HCT-116 [28] = assay: Cell cycle arrest in human HCT116 cells assessed as accumulation at G1 phase at 1 uM after 48 hrs by propidium iodide staining-based FACS analysis (reference value: 60 +/- 2 %); assay type: functional
[29] = Drug uptake in human H460 cell lysosome at 10 uM after 2 hrs by confocal laser scanning microscopy; assay type: ADME, cell-based; settings: h460, 2 h
[30] = Drug uptake in human H460 cell endosome at 10 uM after 2 hrs by confocal laser scanning microscopy; assay type: ADME, cell-based; settings: h460, 2 h
HCT-116 [31] = assay: Cell cycle arrest in human HCT116 cells assessed as accumulation at G1 phase at 0.1 uM after 48 hrs by propidium iodide staining-based FACS analysis (reference value: 60 +/- 2 %); assay type: functional
HCT-116 [32] = assay: Cell cycle arrest in human HCT116 cells assessed as accumulation at G1 phase at 1 uM after 24 hrs by propidium iodide staining-based FACS analysis (reference value: 23 +/- 2 %); assay type: functional
HCT-116 [33] = assay: Cell cycle arrest in human HCT116 cells assessed as accumulation at subG1 phase at 0.1 uM after 48 hrs by propidium iodide staining-based FACS analysis (reference value: 5 +/- 2 %); assay type: functional
HCT-116 [34] = assay: Cell cycle arrest in human HCT116 cells assessed as accumulation at G2/M phase at 1 uM after 24 hrs by propidium iodide staining-based FACS analysis (reference value: 29 +/- 8 %); assay type: functional

Compound: COc1cccc2c1C(=O)c1c(O)c3c(c(O)c1C2=O)C[C@@](O)(C(=O)CO)C[C@@H]3O[C@H]1C[C@H](N)[C@H](O)[C@H](C)O1 [DOXORUBICIN]
inhibition at 50 µM (DNA): 79%

Activity (Homo sapiens): inactive
ΔTm (Calf thymus DNA [1]): 0 °C
Activity (Escherichia coli [3]): Active
Activity (Escherichia coli [4]): inactive
Activity [6]: inactive
Activity (Calf thymus DNA [7]): Active
Compound: N#Cc1cc2ccc(N3CCOCC3)cc2n2c1nc1ccccc12
IC50 (HCT-116 [2]): 300 nM
IC50 (MCF7): 200 nM
IC50 [5]: 300 nM

Compound: O=C(O)CCCc1ccc(N(CCCl)CCCl)cc1 [CHLORAMBUCIL]
inhibition at 50 µM (DNA): 45%

Activity (Homo sapiens): inactive
Drug uptake [9]: Active
ΔTm (Calf thymus DNA [1]): 19.2 °C
Activity (Calf thymus DNA [12]): Active
Activity [13]: Active
Drug uptake [15]: Active
Activity (Calf thymus DNA [16]): Active
Drug uptake [21]: Active
Activity (Escherichia coli [25]): Active
Drug uptake [29]: Active
Drug uptake [30]: Active
Activity [6]: inactive
Activity (Calf thymus DNA [7]): Active
Compound: CN(C)CCCNc1ccc2cc(C#N)c3nc4ccccc4n3c2c1
Activity (HCT-116 [8]): 6%
Activity (HCT-116 [10]): 5%
Activity (HCT-116 [11]): 47%
inhibition at 50 µM (DNA): 72%
IC50 (HCT-116 [2]): 230 nM
Activity (HCT-116 [14]): 13%
Activity (HCT-116 [17]): 40%
Activity (H460): Active
Activity (HCT-116 [18]): 17%
Activity (HCT-116 [19]): 1%
Activity (HCT-116 [20]): 23%
Activity (HCT-116 [22]): 58%
Activity (HCT-116 [23]): 13%
Activity (HCT-116 [24]): Dose-dependent effect
Activity (HCT-116 [26]): 8%
Activity (HCT-116 [27]): 40%
Activity (HCT-116 [28]): 41%
IC50 (MCF7): 400 nM
IC50 [5]: 300 nM
Activity (HCT-116 [31]): 60%
Activity (HCT-116 [32]): 22%
Activity (HCT-116 [33]): 4%
Activity (HCT-116 [34]): 65%

Compound: CCN(CC)CCNc1ccc2cc(C#N)c3nc4ccccc4n3c2c1
IC50 (HCT-116 [2]): 200 nM
IC50 (MCF7): 300 nM
IC50 [5]: 200 nM

Compound: CCCN(CCC)c1ccc2cc(C#N)c3nc4ccccc4n3c2c1
IC50 (HCT-116 [2]): 500 nM
IC50 (MCF7): 2500 nM
IC50 [5]: 300 nM

Compound: CNc1ccc2cc(C#N)c3nc4ccccc4n3c2c1
IC50 (HCT-116 [2]): > 10000 nM
IC50 (MCF7): 200 nM
IC50 [5]: > 10000 nM
